The target in assay [1] is Bcl-2 (Homo sapiens (Human), UniProt P10415). Kind of assay: Bcl-2 competition binding (fluorescence polarization) assay. As to conditions: fluorescein labeled BH3 peptide 15 nM, Bcl-2 protein 30 nM, 3 hours of incubation at room temperature. As to the method: Biological Example 1: Bcl-2 Competition Binding (Fluorescence Polarization) Assay
The fluorescence-labeled 23 amino acid peptide BH3 was purchased from CalBiochem ([…]). […] This binding assay was performed in 96-well plate and with each assay contained 15 and 30 nM of labeled peptide and purified Bcl-2 protein (purchased from R&D Systems, Inc). The assay buffer contained 20 mM Hepes (pH 7.0), 50 mM KCl, 5 mM MgCl2, 20 mM Na2MoO4, 0.1 mg/mi Bovine Gamma Globulin and 0.01% NP40. Compounds were diluted in DMS0 and added to the final assay with concentration range from 20 μM to 2 nM. The polarization degree (mP) value was determined by BioTek Synergy II with background subtraction after 3 hours of incubation at room temperature. IC50 was calculated using Prism software with sigmoidal dose-response curve fitting. ABT-737 was used as reference compound. Such assays, carried out with a range of doses of test compounds, allowed the determination of an approximate IC50 value.
For orientation: Polarisation of emitted light reports the rotation of a fluorescent probe.

Assay [2] concerns BCL-2-dependent acute lymphoblastic leukemia (ALL) cell line RS4; 11 with G101V mutation. The assay can be described thus: In vitro anti-proliferation assay (ATPlite) in RS4; 11 with G101V mutation. The note with it: about 72 hours incubation, medium with 5% FBS or 10% normal human serum, ATPlite luminescence. The assay is classed as cell-based. As to the method:
Cell antiproliferation was assayed by PerkinElmer ATPlite™ Luminescence Assay System. Briefly, the various test cancer cell lines were plated at a density of about 1×10^4 cells per well in Costar 96-well plates, and were incubated with different concentrations of compounds for about 72 hours in medium supplemented with 5% FBS or 10% normal human serum (NHS). One lyophilized substrate solution vial was then reconstituted by adding 5 mL of substrate buffer solution, and was agitated gently until the solution was homogeneous. About 50 μL of mammalian cell lysis solution was added to 100 μL of cell suspension per well of a microplate, and the plate was shaken for about five minutes in an orbital shaker at ˜700 rpm. This procedure was used to lyse the cells and to stabilize the ATP. Next, 50 μL substrate solution was added to the wells and microplate was shaken for five minutes in an orbital shaker at ˜700 rpm. Finally, the luminescence was measured by a PerkinElmer TopCount® Microplate Scintillation Counter. Such assays, carried out with a range of doses of test compounds, allowed the determination of the cellular anti-antiproliferative IC50 of the compounds of the present invention.
For orientation: Cellular ATP, detected with luciferase, serves as a proxy for viable cell number.

Where a name gives a salt, the structure may show the parent alone.

Sequence of Bcl-2 (P10415 whole entry): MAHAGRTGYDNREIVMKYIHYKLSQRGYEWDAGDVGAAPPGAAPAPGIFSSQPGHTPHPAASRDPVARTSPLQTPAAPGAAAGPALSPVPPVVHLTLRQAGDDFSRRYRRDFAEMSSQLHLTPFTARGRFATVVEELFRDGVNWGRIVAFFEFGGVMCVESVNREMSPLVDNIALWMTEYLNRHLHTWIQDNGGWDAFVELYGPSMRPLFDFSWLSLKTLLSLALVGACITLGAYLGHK

Broadly, the IC50 is the concentration at which inhibition is half-maximal. `CC(C)c1ccccc1[C@@H]1CCCN1C1CC2(CCN(c3ccc(C(=O)NS(=O)(=O)c4ccc(NCC5CCOCC5)c([N+](=O)[O-])c4)c(N4c5cc6cc[nH]c6nc5O[C@@H]5COC[C@H]54)c3)CC2)C1` [Example 1, 2-[(11R,15S)-13,16-dioxa-2,4,10-triazatetracyclo[7.7.0.0^[3,7]0.0^[11,15]]hexadeca-1(9),2,5,7-tetraen-10-yl]-4-[2-[(2S)-2-(2-isopropylphenyl)pyrrolidin-1-yl]-7-azaspiro[3.5]nonan-7-yl]-N-[3-nitro-4-[(oxan-4-ylmethyl)amino]benzenesulfonyl]benzamide]: the values for the IC50 in assay [1] and in assay [2] were 100 pM and 5100 pM, respectively.
With `CC(C)c1ccccc1[C@@H]1CCCN1C1CC2(CCN(c3ccc(C(=O)NS(=O)(=O)c4ccc(NCC5CCOCC5)c([N+](=O)[O-])c4)c(N4c5cc6cc[nH]c6nc5O[C@H]5COC[C@@H]54)c3)CC2)C1` [Example 2, 2-[(11S,15R)-13,16-dioxa-2,4,10-triazatetracyclo[7.7.0.0^[3,7].0^[11,15]]hexadeca-1(9),2,5,7-tetraen-10-yl]-4-[2-[(2S)-2-(2-isopropylphenyl)pyrrolidin-1-yl]-7-azaspiro[3.5]nonan-7-yl]-N-[3-nitro-4-[(oxan-4-ylmethyl)amino]benzenesulfonyl]benzamide], the IC50 in assay [1] amounted to 220 pM; in assay [2] it was 66700 pM.
For the compound `CC(C)c1ccccc1[C@@H]1CCCN1C1CC2(CCN(c3ccc(C(=O)NS(=O)(=O)c4ccc(NC[C@H]5CC[C@](C)(O)CC5)c([N+](=O)[O-])c4)c(N4c5cc6cc[nH]c6nc5O[C@@H]5COC[C@H]54)c3)CC2)C1` [Example 3-0A], the IC50 in assay [1] was 160 pM; in assay [2] it was 5600 pM.
Turning to `CC(C)c1ccccc1[C@@H]1CCCN1C1CC2(CCN(c3ccc(C(=O)NS(=O)(=O)c4ccc(NC[C@H]5CC[C@@](C)(O)CC5)c([N+](=O)[O-])c4)c(N4c5cc6cc[nH]c6nc5O[C@@H]5COC[C@H]54)c3)CC2)C1` [Example 3-0B], the IC50 in assay [1] came to 130 pM; in assay [2] it was 25000 pM.
On to `Cc1ccccc1[C@@H]1CCCN1C1CC2(CCN(c3ccc(C(=O)NS(=O)(=O)c4ccc(NCC5CCOCC5)c([N+](=O)[O-])c4)c(N4c5cc6cc[nH]c6nc5O[C@@H]5COC[C@H]54)c3)CC2)C1` [Example 4, 2-[(11R,15S)-13,16-dioxa-2,4,10-triazatetracyclo[7.7.0.0^{3,7}.0^{11,15}]hexadeca-1(9),2,5,7-tetraen-10-yl]-4-{2-[(2S)-2-(2-methylphenyl)pyrrolidin-1-yl]-7-azaspiro[3.5]nonan-7-yl}-N-{3-nitro-4-[(oxan-4-ylmethyl)amino]benzenesulfonyl}benzamide], for which the IC50 came to 183 pM in assay [1] and 28300 pM in assay [2].
For `C=C(C)c1ccccc1[C@@H]1CCCN1C1CC2(CCN(c3ccc(C(=O)NS(=O)(=O)c4ccc(NCC5CCOCC5)c([N+](=O)[O-])c4)c(N4c5cc6cc[nH]c6nc5O[C@@H]5COC[C@H]54)c3)CC2)C1` [Example 5, 2-[(11R,15S)-13,16-dioxa-2,4,10-triazatetracyclo[7.7.0.0^{3,7}.0^{11,15}]hexadeca-1(9),2,5,7-tetraen-10-yl]-N-{3-nitro-4-[(oxan-4-ylmethyl)amino]benzenesulfonyl}-4-{2-[(2S)-2-[2-(prop-1-en-2-yl)phenyl]pyrrolidin-1-yl]-7-azaspiro[3.5]nonan-7-yl}benzamide hydrochloride], in that order: 67 pM and 9500 pM.
With `C=Cc1ccccc1[C@@H]1CCCN1C1CC2(CCN(c3ccc(C(=O)NS(=O)(=O)c4ccc(NCC5CCOCC5)c([N+](=O)[O-])c4)c(N4c5cc6cc[nH]c6nc5O[C@@H]5COC[C@H]54)c3)CC2)C1` [Example 6, 2-[(11R,15S)-13,16-dioxa-2,4,10-triazatetracyclo[7.7.0.0^{3,7}.0^{11,15}]hexadeca-1(9),2,5,7-tetraen-10-yl]-4-{2-[(2S)-2-(2-ethenylphenyl)pyrrolidin-1-yl]-7-azaspiro[3.5]nonan-7-yl}-N-{3-nitro-4-[(oxan-4-ylmethyl)amino]benzenesulfonyl}benzamide hydrochloride], the IC50 in assay [1] worked out at 83 pM; in assay [2] it was 29000 pM.
In the case of `CCc1ccccc1[C@@H]1CCCN1C1CC2(CCN(c3ccc(C(=O)NS(=O)(=O)c4ccc(NCC5CCOCC5)c([N+](=O)[O-])c4)c(N4c5cc6cc[nH]c6nc5O[C@@H]5COC[C@H]54)c3)CC2)C1` [Example 7, 2-[(11R,15S)-13,16-dioxa-2,4,10-triazatetracyclo[7.7.0.0^{3,7}.0^{11,15}]hexadeca-1(9),2,5,7-tetraen-10-yl]-4-{2-[(2S)-2-(2-ethylphenyl)pyrrolidin-1-yl]-7-azaspiro[3.5]nonan-7-yl}-N-{3-nitro-4-[(oxan-4-ylmethyl)amino]benzenesulfonyl}benzamide hydrochloride], the IC50 in assay [1] came to 66 pM; in assay [2], 11500 pM.
Consider `O=C(NS(=O)(=O)c1ccc(NCC2CCOCC2)c([N+](=O)[O-])c1)c1ccc(N2CCC3(CC2)CC(N2CCC[C@H]2c2ccccc2C2CC2)C3)cc1N1c2cc3cc[nH]c3nc2O[C@@H]2COC[C@H]21` [Example 8, 4-{2-[(2S)-2-(2-cyclopropylphenyl)pyrrolidin-1-yl]-7-azaspiro[3.5]nonan-7-yl}-2-[(11R,15S)-13,16-dioxa-2,4,10-triazatetracyclo[7.7.0.0^{3,7}.0^{11,15}]hexadeca-1(9),2,5,7-tetraen-10-yl]-N-{3-nitro-4-[(oxan-4-ylmethyl)amino]benzenesulfonyl}benzamide hydrochloride], for which the IC50 in assay [1] came to 66 pM; in assay [2], 9100 pM.
Turning to `CNc1ccccc1[C@@H]1CCCN1C1CC2(CCN(c3ccc(C(=O)NS(=O)(=O)c4ccc(NCC5CCOCC5)c([N+](=O)[O-])c4)c(N4c5cc6cc[nH]c6nc5O[C@@H]5COC[C@H]54)c3)CC2)C1` [Example 17, 2-[(11R,15S)-13,16-dioxa-2,4,10-triazatetracyclo[7.7.0.0^{3,7}.0^{11,15}]hexadeca-1(9),2,5,7-tetraen-10-yl]-4-{2-[(2S)-2-[2-(methylamino)phenyl]pyrrolidin-1-yl]-7-azaspiro[3.5]nonan-7-yl}-N-{3-nitro-4-[(oxan-4-ylmethyl)amino]benzenesulfonyl}benzamide], the IC50 worked out at 225 pM in assay [1] and 99500 pM in assay [2].
Take `CC(C)(C#N)c1ccccc1[C@@H]1CCCN1C1CC2(CCN(c3ccc(C(=O)NS(=O)(=O)c4ccc(NCC5CCOCC5)c([N+](=O)[O-])c4)c(N4c5cc6cc[nH]c6nc5O[C@@H]5COC[C@H]54)c3)CC2)C1` [Example 19, 4-{2-[(2S)-2-[2-(1-cyano-1-methylethyl)phenyl]pyrrolidin-1-yl]-7-azaspiro[3.5]nonan-7-yl}-2-[(11R,15S)-13,16-dioxa-2,4,10-triazatetracyclo[7.7.0.0^{3,7}.0^{11,15}]hexadeca-1(9),2,5,7-tetraen-10-yl]-N-{3-nitro-4-[(oxan-4-ylmethyl)amino]benzenesulfonyl}benzamide hydrochloride]: the IC50 in assay [1] was determined as 100 pM; in assay [2], 71800 pM.
As to `CC(C)Oc1ccccc1[C@@H]1CCCN1C1CC2(CCN(c3ccc(C(=O)NS(=O)(=O)c4ccc(NCC5CCOCC5)c([N+](=O)[O-])c4)c(N4c5cc6cc[nH]c6nc5O[C@@H]5COC[C@H]54)c3)CC2)C1` [Example 20, 2-[(11R,15S)-13,16-dioxa-2,4,10-triazatetracyclo[7.7.0.0^{3,7}.0^{11,15}]hexadeca-1(9),2,5,7-tetraen-10-yl]-4-{2-[(2S)-2-(2-isopropoxyphenyl)pyrrolidin-1-yl]-7-azaspiro[3.5]nonan-7-yl}-N-{3-nitro-4-[(oxan-4-ylmethyl)amino]benzenesulfonyl}benzamide], the IC50 worked out at 299 pM in assay [1] and 60400 pM in assay [2].
As for `CC(C)Cc1ccccc1[C@@H]1CCCN1C1CC2(CCN(c3ccc(C(=O)NS(=O)(=O)c4ccc(NCC5CCOCC5)c([N+](=O)[O-])c4)c(N4c5cc6cc[nH]c6nc5O[C@@H]5COC[C@H]54)c3)CC2)C1` [Example 35, 4-(2-((S)-2-(2-isobutylphenyl)pyrrolidin-1-yl)-7-azaspiro[3.5]nonan-7-yl)-N-((3-nitro-4-(((tetrahydro-2H-pyran-4-yl)methyl)amino)phenyl)sulfonyl)-2-((5aR,8aS)-5a,6,8,8a-tetrahydrofuro[3,4-b]pyrrolo[3′,2′:5,6]pyrido[3,2-e][1,4]oxazin-5(1H)-yl)benzamide], the IC50 in assay [1] is 580 pM.

The record behind these values is US20240166646A1, “1H-PYRROLO[2,3-B]PYRIDINE DERIVATIVES AS BCL-2 INHIBITORS FOR THE TREATMENT OF NEOPLASTIC AND AUTOIMMUNE DISEASES” (Newave Pharmaceutical Inc., priority 2020, published 2024).
